Assays:
[1] = in vitro; set-up: dose or concentration left out as unconfirmed; conditions: mouse, liver microsomes
[2] = in vitro; set-up: dose or concentration left out as unconfirmed; conditions: human, liver microsomes

SMILES: CC(C)c1ccc(CC(=O)N2CCN(c3ccc(C#N)nn3)CC2)cc1
- CLint scaled at 4 h [1]: 408 mL/min/kg
- CLint scaled at 4 h [2]: 175 mL/min/kg

— ChEMBL document CHEMBL5576147, “Development of Brain Penetrant Pyridazine Pantothenate Kinase Activators” (J Med Chem, 2024)
